The nature of one data set: in vivo. The following applies: rat, po, peroral, rats, read-out: Peroraler LD50-Wert in mg/kg an Ratten.
Data set [1] has as its system männlichen Ratten der Art Long Evans. The data set can be described thus: animal or person. In kind it is in vivo. The following applies: for Prozentuale Hemmung bei einer peroralen Dosis von 1,56 mg/kg: peroral 1,56 mg/kg; for Prozentuale Hemmung bei einer peroralen Dosis von 3,12 mg/kg: peroral 3,12 mg/kg; for change in vivo at 6.25 mg/kg / change in vivo at 12.5 mg/kg: 504 h; for change in vivo at 6.25 mg/kg: read-out: Prozentuale Hemmung bei einer peroralen Dosis von 6,25 mg/kg; for ED50: read-out: Peroraler ED50-Wert in mg/kg an Ratten; for Therapeu-tischer Index LD50-Wert / ED50-Wert: ratio of peroral LD50 to peroral ED50, rats. How it is done:
Die Untersuchung der therapeutischen Wirkung der erfindungsgemäßen 1,2,4-Triazolderivate wurde mittels des modifizierten Newbould-Prüfversuches (Brit. J. Pharmacol., 21 [1963], Seite 127) durchgeführt. Dazu wurde in die rechen Hinterfüße von männlichen Ratten der Art Long Evans mit Gewichten von 180 bis 250 g intraplantar […] abgetötetes Mycobacterium tuberculosis in einem Volumen von 0,1 ml injiziert. Nachfolgend wurden die Ratten pro betreffenden Tag mit einer Dosis der zu untersuchenden Verbindung insgesamt 16-mal während 3 Wochen behandelt. Die Änderung des Volumens der Fußschwellung wurde 21 Tage lang täglich mit einem Quecksilber-Plethysmometer vom Lence-Typ bestimmt. Vom 10-ten Tag an wurde das Volumen des linken Hinterfußes bestimmt. Die prozentuale Hemmung wurde im Verhältnis zu diesem Volumen aus der eintretenden Änderung in der Schwellung des rechten Hinterfußes berechnet.

A further data set relates to Ratten. The data set can be described thus: ulcerogenic side effect. In kind it is in vivo. How it is done: Auch die geschwürbildende beziehungsweise ulcerogene Wirkung, eine der kritischsten Nebenwirkungen entzündungshemmender Mittel, betreffend erwiesen sich die erfindungsgemäßen 1,2,4-Triazolderivate als im Vergleich zu Handelspräparaten günstiger. So führten Einzeldosen von 15 mg/kg 1-(p-Chlorbenzoyl)-5-(methoxy)-2-(methyl)-indol-3-ylessig- säure {Indometacin} bei 100% der Ratten Geschwüre (Ulcus) herbei, während Einzeldosen von 1 000 mg/kg 1,5-Bis-[4'--(chlor)-phenyl]-3-[methylthio]-1,2,4-triazol (Verbindung des Beispieles 27) nur bei 10% der Tiere Geschwüre verursachten.

Where [2] appears, read: 16 doses during 3 weeks, paw swelling, rats.
The mark [3] stands for this setting: po, peroral 12,5 mg/kg, 16 doses during 3 weeks, paw swelling, rats, read-out: Prozentuale Hemmung bei einer peroralen Dosis von 12,5 mg/kg.
[4] abbreviates: po, read-out: Prozentuale Hemmung bei einer peroralen Dosis von 12,5 mg/kg.

Read-outs that look alike come from different tables or passages of the source.

Take `CSc1nc(-c2ccc(F)cc2)n(-c2ccc(Cl)cc2)n1` [Beispiel 44, 1-[4'-(Chlor)-phenyl]-5-[4"-(fluor)-phenyl]-3--[methylthio]-1,2,4-triazol]: the LD50 in the data set “in vivo” came out at 170 mg/kg. In data set [1] (setting [2]), the “Prozentuale Hemmung bei einer peroralen Dosis von 1,56 mg/kg” value is on record as -36% and the “Prozentuale Hemmung bei einer peroralen Dosis von 3,12 mg/kg” value is -64%. In data set [1] (po), the change in vivo at 6.25 mg/kg was -53% and the ED50 was 2.1 mg/kg. The “Therapeu-tischer Index LD50-Wert / ED50-Wert” value in data set [1] is 81,0.
Turning to `CSc1nc(-c2ccccc2SC)n(-c2ccc(Cl)cc2)n1` [Beispiel 14, 1-[4'-(Chlor)-phenyl]-5-[2"-(methylthio)-phenyl]-3--[methylthio]-1,2,4-triazol], the “Prozentuale Hemmung bei einer peroralen Dosis von 3,12 mg/kg” value in data set [1] (setting [2]) is given as -5%. In addition, in data set [1] (setting [3]), the change in vivo at 12.5 mg/kg is -51%.
For `Clc1ccc(-c2nc(SCc3ccccn3)nn2-c2ccc(Cl)cc2)cc1` [Beispiel 4, 1,5-Bis-[4'-(chlor)-phenyl]-3-[pyrid-2"-ylmethyl-thio]-1,2,4-triazol], the “Prozentuale Hemmung bei einer peroralen Dosis von 3,12 mg/kg” value in data set [1] (setting [2]) was -38%. For the same molecule, the change in vivo at 6.25 mg/kg in data set [1] (po) is -40%.
With `CSc1nc(-c2ccc(Cl)cc2)n(-c2cccc(C(F)(F)F)c2)n1` [Beispiel 42, 1-[3'-(Trifluormethyl)-phenyl]-5-[4"-(Chlor)-phenyl]--3-[methylthio]-1,2,4-triazol], in data set [1] (po), the change in vivo at 6.25 mg/kg is -48%.
For `CSc1nc(-c2ccc(Cl)cc2)n(-c2ccc(F)cc2)n1` [Beispiel 55, 1-[4'-(Fluor)-phenyl]-5-[4"-(chlor)-phenyl]-3--[methylthio]-1,2,4-triazol], the LD50 in the data set “in vivo” was 380 mg/kg. In data set [1] (setting [2]), the “Prozentuale Hemmung bei einer peroralen Dosis von 1,56 mg/kg” value is -12% and the “Prozentuale Hemmung bei einer peroralen Dosis von 3,12 mg/kg” value is recorded as -26%. In data set [1] (po), the change in vivo at 6.25 mg/kg was -68% and the ED50 amounted to 6.8 mg/kg. Also, in data set [1], the “Therapeu-tischer Index LD50-Wert / ED50-Wert” value was 55,9.
In the case of `CSc1nc(-c2cccs2)n(-c2ccc(Cl)cc2)n1` [Beispiel 30, 1-[4'-(Chlor)-phenyl]-5-[thien-2"-yl]-3-[methylthio]--1,2,4-triazol], the change in vivo at 12.5 mg/kg in data set [1] (setting [3]) was -44%.
As to `CSc1nc(-c2ccc(C(F)(F)F)cc2)n(-c2ccc(F)cc2)n1` [Beispiel 45, 1-[4'-(Fluor)-phenyl]-5-[4"-(trifluormethyl)-phenyl]--3-[methylthio]-1,2,4-triazol], the change in vivo at 6.25 mg/kg in data set [1] (po) is -25%. In addition, the change in vivo at 12.5 mg/kg in data set [1] (setting [3]) is -48%.
For `CSc1nc(-c2ccc(Cl)cc2)n(-c2ccc(Br)cc2)n1` [Beispiel 54, 1-[4'-(Brom)-phenyl]-5-[4"-(chlor)-phenyl]-3--[methylthio]-1,2,4-triazol], in that order: -28% and -56%.
For `CSc1nc(-c2ccc(F)cc2)n(-c2cccc(C(F)(F)F)c2)n1` [Beispiel 47, 1-[3'-(Trifluormethyl)-phenyl]-5-[4"-(fluor)-phenyl]--3-[methylthio]-1,2,4-triazol], in that order: -22% and -53%.
For the molecule `CSc1nc(-c2ccc(F)cc2)n(-c2ccc(F)cc2)n1` [Beispiel 41, 1-[4'-(Fluor)-phenyl]-5-[4"-(fluor)-phenyl]-3--[methylthio]-1,2,4-triazol], in data set [1] (setting [2]), the “Prozentuale Hemmung bei einer peroralen Dosis von 3,12 mg/kg” value is reported as -42%. Further, the change in vivo at 6.25 mg/kg in data set [1] (po) was -57%.
As for `CSc1nc(-c2ccc(F)cc2)n(-c2cccc(Cl)c2)n1` [Beispiel 53, 1-[3'-(Chlor)-phenyl]-5-[4"-(fluor)-phenyl]-3--[methylthio]-1,2,4-triazol], the change in vivo at 12.5 mg/kg in data set [1] (setting [3]) was -51%.
Take `CSc1nc(-c2ccc(Cl)cc2)n(-c2ccc(Cl)cc2)n1` [Beispiel 27, 1,5-Bis-[4'-(chlor)-phenyl]-3--[methylthio]-1,2,4-triazol]: the “Tiere mit Geschwüren” value in the data set on Ratten (single dose 1 000 mg/kg, share of animals with ulcers) was 10%. In data set [1] (setting [2]), the “Prozentuale Hemmung bei einer peroralen Dosis von 1,56 mg/kg” value is -17% and the “Prozentuale Hemmung bei einer peroralen Dosis von 3,12 mg/kg” value is listed as -39%. In data set [1] (po), the change in vivo at 6.25 mg/kg was -55% and the ED50 worked out at 7.4 mg/kg. Besides, in data set [1] (setting [4]), the change in vivo at 12.5 mg/kg was -67%.
For the molecule `CCCCC1C(=O)N(c2ccccc2)N(c2ccccc2)C1=O` [Vergleichs-substanz A, 4-(Butyl)-1,2-di-(phenyl)-pyrazolidin-3,5-dion, reference compound], in data set [1] (setting [3]), the change in vivo at 12.5 mg/kg was -7%.
`COc1ccc2c(c1)c(CC(=O)O)c(C)n2C(=O)c1ccc(Cl)cc1` [Indometacin, 1-(p-Chlorbenzoyl)-5-(methoxy)-2-(methyl)-indol-3-ylessig-säure, reference compound]: the “Ratten mit Geschwüren (Ulcus)” value in the data set on Ratten (single dose 15 mg/kg, share of rats with ulcers) is 100%.
With `COc1ccc2cc([C@H](C)C(=O)O)ccc2c1` [Vergleichs-substanz B, (+)-2-[6'--(Methoxy)-naphth-2'-yl]-propionsäure, reference compound], the ED50 in data set [1] (po) stood at 12.5 mg/kg. For the same molecule, the change in vivo at 10 mg/kg in data set [1] (setting [4]) is -34%.

For the origin of these results see patent publication EP0155486A1, “1,3,5-Trisubstituted 1,2,4-triazole derivatives, process for their preparation and medicinal preparations containing them” (priority 1984, dated 1985).
